Data taken from patent publication US12679807B2 (MERCK SHARP & DOHME LLC, priority 2020, dated 2026).

The compounds below were run against T1, GCS enzyme contained within Golgi preparations isolated from human A375 malignant melanoma skin cells (Homo sapiens, UniProt Q16739) (assay: UDP-Glo glucosylceramide synthase biochemical assay). Settings: crude Golgi preparation from A375 cells; C6 ceramide and UDP-glucose substrates; 20 h incubation at room temperature; UDP detected by luminescence.
T1 construct: endogenous levels of GCS enzyme contained within Golgi preparations isolated from human A375 malignant melanoma skin cells; endogenous in cells; host or cells: A375 human malignant melanoma cells (crude Golgi preparation)
T1 sequence (Q16739 1-394): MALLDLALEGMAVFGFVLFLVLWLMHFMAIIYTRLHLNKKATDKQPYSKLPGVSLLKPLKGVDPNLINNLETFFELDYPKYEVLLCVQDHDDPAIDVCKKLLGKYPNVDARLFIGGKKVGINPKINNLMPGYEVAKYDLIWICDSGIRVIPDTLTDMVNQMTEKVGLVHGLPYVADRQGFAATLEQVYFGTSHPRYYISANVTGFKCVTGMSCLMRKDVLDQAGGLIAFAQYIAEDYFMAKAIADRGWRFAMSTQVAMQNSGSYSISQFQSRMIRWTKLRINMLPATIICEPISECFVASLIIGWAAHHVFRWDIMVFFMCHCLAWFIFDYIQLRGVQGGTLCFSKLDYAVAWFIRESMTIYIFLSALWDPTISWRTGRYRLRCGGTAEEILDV
From the text: UDP-Glo™ Glucosylceramide Synthase Biochemical Assay
A UDP-Glo™ glucosylceramide synthase biochemical assay was utilized to evaluate the effect of test compounds on the activity of endogenous levels of GCS enzyme contained within Golgi preparations isolated from human A375 malignant melanoma skin cells. The UDP-Glo™ glucosylceramide synthase assay uses UDP-Glucose as a nucleotide-glycosyl donor and ceramide as substrate acceptor molecules. In the reaction, glucosylceramide synthase (GCS) transfers glucose from UDP-Glucose to ceramide. Glucosylceramide and UDP are released as products.
Using Promega's UDP-Glo™ Glycosyltransferase assay kit (Promega Corporation, Madison, WI, USA (Promega)), GCS activity was indirectly measured by detecting the amount of UDP produced. An aliquot of GCS enzyme (1.5 μg crude golgi preparation, total protein) and titrated test compound were aliquoted to each well and incubated for 30 minutes at room temperature. […] An equivalent volume of substrate mixture was then added to each well. Following a 20 h incubation at room temperature to allow for GCS turnover of substrate, an equal volume of UDP detection reagent (Promega) was added to each well and incubated for an additional 75 minutes at room temperature to simultaneously convert the accumulated UDP product into ATP and generate light in a luciferase reaction. The generated light was detected using a luminometer. […] luminescence values (RLUs) were normalized to mean “min” and “max” effects, as determined on each plate. […] Values for % Emax and EC50 were determined by best-fitting the normalized data to a curve in Activity Base along a four-parameter logistic nonlinear regression (4PL) model (based on the Levenberg-Marquardt algorithm and defined by the equation below):
[formula] where: n is 4 PMin (bottom of the curve); m is 4 PMax (top of the curve); i is IP (inflection point of curve); and p is slope. See Levenberg, K., “A Method for the Solution of Certain Problems in Least Squares”, Quart. Appl. Math. […] Math.

Compared with `CC(C)(O)C(C1CC1)N1Cc2cccc(/C=C/c3ccc(F)cc3F)c2C1=O` (racemic) [Compound 4, (R and S)-(E)-2-(1-cyclopropyl-2-hydroxy-2-methylpropyl)-7-(2,4-difluorostyryl)isoindolin-1-one], `COc1ccc(F)c(F)c1C(=O)Nc1cccc2c1C(=O)N(C(C1CC1)C(C)(C)O)C2` (single isomer, unassigned) [Compound 112, (R or S)-N-(2-(1-cyclopropyl-2-hydroxy-2-methylpropyl)-3-oxoisoindolin-4-yl)-2,3-difluoro-6-methoxybenzamide] is 710-fold lower in EC50: 290 nM for the first, 0.41 nM for the second. The second is the more potent here.

First: Cc1ccc(-c2ccc(-c3cccc4c3C(=O)N(C(C3CC3)C(C)(C)O)C4)cc2)nn1 (racemic) [Compound 18, (R and S)-2-(1-cyclopropyl-2-hydroxy-2-methylpropyl)-7-(4-(6-methylpyridazin-3-yl)phenyl)isoindolin-1-one]
Second: Cc1nnc(-c2ccc(-c3cc(Cl)cc4c3C(=O)N(C(C3CC3)C(C)(C)O)C4)cc2)o1 (single isomer, unassigned) [Compound 39, (R or S)-5-chloro-2-(1-cyclopropyl-2-hydroxy-2-methylpropyl)-7-(4-(5-methyl-1,3,4-oxadiazol-2-yl)phenyl)isoindolin-1-one]
The EC50 of the first is 56-fold higher: 45 nM for the first, 0.8 nM for the second. The second is the more potent here.

First: COc1ccc(-c2cccc3c2C(=O)N(C(C2CC2)C(C)(C)O)C3)cc1OC (racemic) [Compound 19, (R and S)-2-(1-cyclopropyl-2-hydroxy-2-methylpropyl)-7-(3,4-dimethoxyphenyl) isoindolin-1-one]
Second: Cc1cc(-c2cccc3c2C(=O)N(C(C2CC2)C(C)(C)O)C3)cc(C)n1 (racemic) [Compound 20, (R and S)-2-(1-cyclopropyl-2-hydroxy-2-methylpropyl)-7-(2,6-dimethylpyridin-4-yl)isoindolin-1-one]
The EC50 of the first is 2.4-fold lower: 28 nM for the first, 67 nM for the second. The first is the more potent here.

Going from `O=C1c2c(cccc2-c2ccccc2OCC(F)(F)F)CN1CCC1CCC(O)C1` (racemic) [Compound 47, (cis and trans racemic)-2-(2-(3-hydroxycyclopentyl)ethyl)-7-(2-(2,2,2-trifluoroethoxy)phenyl) isoindolin-1-one] to `CC(C)(O)C(C1CC1)N1Cc2ccc(F)c(-c3ccccc3OCC(F)(F)F)c2C1=O` (single isomer, unassigned) [Compound 21, 2-((R or S)-1-cyclopropyl-2-hydroxy-2-methylpropyl)-6-fluoro-7-(2-(2,2,2-trifluoroethoxy)phenyl) isoindolin-1-one], the EC50 falls from 380 nM to 0.91 nM (420-fold).

Going from `O=C1c2c(cccc2-c2ccc(F)cc2)CN1CCC1CN2CCC1CC2` (racemic) [Compound 52, (R and S)-7-(4-fluorophenyl)-2-(2-(quinuclidin-3-yl)ethyl)isoindolin-1-one] to `Cc1cc(-c2cccc3c2C(=O)N(CCC2CN4CCC2CC4)C3)ccn1` (racemic) [Compound 54, (R and S)-7-(2-methylpyridin-4-yl)-2-(2-(quinuclidin-3-yl)ethyl)isoindolin-1-one], the EC50 falls from 160 nM to 97 nM (1.6-fold). The second is the more potent here.

Compared with `Cc1nn(C)c(C)c1-c1cccc2c1C(=O)N(CCC1CN3CCC1CC3)C2` (racemic) [Compound 53, (R and S)-2-(2-(quinuclidin-3-yl)ethyl)-7-(1,3,5-trimethyl-1H-pyrazol-4-yl)isoindolin-1-one], `CCOc1ccccc1C(=O)Nc1cccc2c1C(=O)N(C1CN3CCC1CC3)C2` (racemic) [Compound 107, (R and S)-2-Ethoxy-N-(3-oxo-2-(quinuclidin-3-yl)isoindolin-4-yl)benzamide] is 11-fold higher in EC50: 48 nM for the first, 550 nM for the second. The first is the more potent here.

Going from `CCOc1ccccc1C(=O)Nc1cccc2c1C(=O)N(C(CO)C1CCC1)C2` (racemic) [Compound 101, (R and S)-N-(2-(1-cyclobutyl-2-hydroxyethyl)-3-oxoisoindolin-4-yl)-2-ethoxybenzamide] to `CCOc1ccccc1C(=O)Nc1cccc2c1C(=O)N(CC1CC3CCN1CC3)C2` (racemic) [Compound 108, 2-Ethoxy-N-(3-oxo-2-(quinuclidin-2-ylmethyl)isoindolin-4-yl)benzamide], the EC50 rises from 160 nM to 270 nM (1.7-fold). The first is the more potent here.

Compared with `CN(C(=O)OC1CN2CCC1CC2)c1cccc2c1C(=O)N(c1ccc(F)cc1)C2` (racemic) [Compound 170, (R and S)-Quinuclidin-3-yl(2-(4-fluorophenyl)-3-oxoisoindolin-4-yl)(methyl)carbamate], `Cc1ccc(F)c(C(=O)Nc2cccc3c2C(=O)N(C(C2CC2)C(C)(C)O)C3)c1Cl` (single isomer, unassigned) [Compound 110, (R or S)-2-chloro-N-(2-(1-cyclopropyl-2-hydroxy-2-methylpropyl)-3-oxoisoindolin-4-yl)-6-fluoro-3-methylbenzamide] is 620-fold lower in EC50: 130 nM for the first, 0.21 nM for the second.

First: CC(C)(O)C(C1CC1)N1Cc2cc(F)cc(-c3ccccc3OCC(F)(F)F)c2C1=O (single isomer, unassigned) [Compound 23, (R or S)-2-(1-cyclopropyl-2-hydroxy-2-methylpropyl)-5-fluoro-7-(2-(2,2,2-trifluoroethoxy)phenyl) isoindolin-1-one]
Second: COc1cc(C#N)cc(-c2nccc3c2C(=O)N(C(C2CC2)C(C)(C)O)C3)c1 (single isomer, unassigned) [Compound 30, (R or S)-3-(2-(1-cyclopropyl-2-hydroxy-2-methylpropyl)-3-oxo-2,3-dihydro-1H-pyrrolo[3,4-c]pyridin-4-yl)-5-methoxybenzonitrile]
The EC50 of the first is 230-fold lower: 0.41 nM for the first, 95 nM for the second.

Compared with `Cc1nnc(-c2ccc(-c3nccc4c3C(=O)N(C(C3CC3)C(C)(C)O)C4)cc2)o1` (single isomer, unassigned) [Compound 28, (R or S)-2-(1-cyclopropyl-2-hydroxy-2-methylpropyl)-4-(4-(5-methyl-1,3,4-oxadiazol-2-yl)phenyl)-1,2-dihydro-3H-pyrrolo[3,4-c]pyridin-3-one], `Cc1nnc(-c2ccc(-c3ccnc4c3C(=O)N(C(C3CC3)C(C)(C)O)C4)cc2)o1` (single isomer, unassigned) [Compound 33, (R or S)-6-(1-cyclopropyl-2-hydroxy-2-methylpropyl)-4-(4-(5-methyl-1,3,4-oxadiazol-2-yl)phenyl)-6,7-dihydro-5H-pyrrolo[3,4-b]pyridin-5-one] is 1.5-fold lower in EC50: 540 nM for the first, 350 nM for the second. The second is the more potent here.

Going from `Cc1nnc(-c2ccc(-c3cncc4c3C(=O)N(C(C3CC3)C(C)(C)O)C4)cc2)o1` (single isomer, unassigned) [Compound 31, (R or S)-2-(1-cyclopropyl-2-hydroxy-2-methylpropyl)-7-(4-(5-methyl-1,3,4-oxadiazol-2-yl)phenyl)-2,3-dihydro-1H-pyrrolo[3,4-c]pyridin-1-one] to `Cc1nnc(-c2ccc(-c3cccc4c3C(=O)N([C@H](C3CC3)C(C)(C)O)C4C)cc2)o1` (single isomer, unassigned) [Compound 62, (R or S)-2-((R)-1-Cyclopropyl-2-hydroxy-2-methylpropyl)-3-methyl-7-(4-(5-methyl-1,3,4-oxadiazol-2-yl)phenyl)isoindolin-1-one], the EC50 falls from 180 nM to 53 nM (3.4-fold).

Compared with `Cn1cc(-c2ccc(-c3cccc4c3C(=O)N(C(C(C)(C)O)C(F)(F)F)C4)cc2)cn1` (single isomer, unassigned) [Compound 43, (R or S)-7-(4-(1-methyl-1H-pyrazol-4-yl)phenyl)-2-(1,1,1-trifluoro-3-hydroxy-3-methylbutan-2-yl)isoindolin-1-one], `Cc1nnc(-c2ccc(-c3cccc4c3C(=O)N(C(C3CC3)C3(O)COC3)C4)cc2)o1` (single isomer, unassigned) [Compound 51, (R or S)-2-(cyclopropyl(3-hydroxyoxetan-3-yl)methyl)-7-(4-(5-methyl-1,3,4-oxadiazol-2-yl)phenyl)isoindolin-1-one] is 4.1-fold lower in EC50: 24 nM for the first, 5.9 nM for the second. The second is the more potent here.

With `Cc1ccc(Cl)c(C(=O)Nc2cccc3c2C(=O)N(C(C2CC2)C(C)(C)O)C3)c1F` (single isomer, unassigned) [Compound 111, (R or S)-6-chloro-N-(2-(1-cyclopropyl-2-hydroxy-2-methylpropyl)-3-oxoisoindolin-4-yl)-2-fluoro-3-methylbenzamide] the EC50 was 0.26 nM.
